In patent publication US4197286A, “Testosterone derivatives and assay method” (Southwest Research Institute, priority 1977, dated 1980):

System: anti-testosterone serum from rabbit No. X-181
Assay: Cross-reactivity of structurally similar steroids with the anti-testosterone serum
Type: binding
Conditions: antiserum of rabbit X-181; testosterone = 100
Experimental: Also, the cross-reactivity of pertinent and structurally similar steroids was determined to be as follows:

Row | Structure (SMILES) | % CROSS-REACTIVITY [%]
1 | C[C@]12CC[C@H]3[C@@H](CC=C4C[C@@H](O)CC[C@@]43C)[C@@H]1CC[C@@H]2O [5-Androstene-3β,17β-diol] | 0.51
2 | C[C@]12C[C@H](O)[C@H]3[C@@H](CCC4=CC(=O)CC[C@@]43C)[C@@H]1CC[C@@H]2O [11β-Hydroxytestosterone] | 0.00
3 | C[C@]12CC[C@H](O)C[C@@H]1CC[C@@H]1[C@@H]2CC[C@]2(C)[C@@H](O)CC[C@@H]12 [5α-Androstane-3β,17β-diol] | 2.19
4 | C[C@]12CC[C@H]3[C@@H](CCC4=CC(=O)CC[C@@]43C)[C@@H]1CC[C@@H]2C(=O)CO [Deoxycorticosterone] | 0.00
5 | C[C@]12CC[C@@H](O)C[C@@H]1CC[C@@H]1[C@@H]2CC[C@]2(C)[C@@H](O)CC[C@@H]12 [5α-Androstane-3α, 17β-diol] | 0.00
6 | C[C@]12CCC(=O)C[C@H]1CC[C@@H]1[C@@H]2CC[C@]2(C)[C@@H](O)CC[C@@H]12 [5β-Dihydrotestosterone] | 0.63
7 | C[C@]12CC[C@@H]3c4ccc(O)cc4CC[C@H]3[C@@H]1C[C@@H](O)[C@@H]2O [Estriol] | 0.00
8 | C[C@]12CC[C@@H]3c4ccc(O)cc4CC[C@H]3[C@@H]1CCC2=O [Estrone] | 0.00
9 | C[C@]12CCC(=O)C=C1CC[C@@H]1[C@@H]2CC[C@]2(C)C(=O)CC[C@@H]12 [Androstenedione] | 0.90
10 | C[C@]12CC[C@@H]3c4ccc(O)cc4CC[C@H]3[C@@H]1CC[C@@H]2O [Estradiol] | 0.43
11 | C[C@]12C[C@H](O)[C@H]3[C@@H](CCC4=CC(=O)CC[C@@]43C)[C@@H]1CC[C@@H]2C(=O)CO [Corticosterone] | 0.00
12 | C[C@]12CC[C@H](O)CC1=CC[C@@H]1[C@@H]2CC[C@]2(C)C(=O)CC[C@@H]12 [Dehydroepiandrosterone] | 0.00
13 | C[C@]12CCC(=O)C=C1CC[C@@H]1[C@@H]2[C@@H](O)C[C@]2(C)C(=O)CC[C@@H]12 [11β-Hydroxyandrostenodione] | 0.00
14 | C[C@]12CC[C@@H](O)C[C@@H]1CC[C@@H]1[C@@H]2CC[C@]2(C)C(=O)CC[C@@H]12 [Androsterone] | 0.00
15 | C[C@]12CCC(=O)C[C@H]1CC[C@@H]1[C@@H]2CC[C@]2(C)C(=O)CC[C@@H]12 [5β-Androstane-3,17-dione] | 0.00
16 | C[C@]12CC[C@H]3[C@@H](CCC4=CC(=O)CC[C@@]43C)[C@@H]1CC[C@@H]2O [Testosterone] | 100.00
17 | C[C@]12CC[C@H]3[C@@H](C[C@H](O)C4=CC(=O)CC[C@@]43C)[C@@H]1CC[C@@H]2O [6α-Hydroxytestosterone] | 0.75
18 | C[C@]12CCC(=O)C[C@@H]1CC[C@@H]1[C@@H]2CC[C@]2(C)[C@@H](O)CC[C@@H]12 [5α-Dihydrotestosterone] | 6.65
19 | C[C@]12CC[C@H](O)C[C@@H]1CC[C@@H]1[C@@H]2CC[C@]2(C)C(=O)CC[C@@H]12 [Epiandrosterone] | 0.19
20 | CC(=O)[C@H]1CC[C@H]2[C@@H]3CCC4=CC(=O)CC[C@]4(C)[C@H]3CC[C@]12C [Progesterone] | 0.00
21 | C[C@]12CC(=O)[C@H]3[C@@H](CCC4=CC(=O)CC[C@@]43C)[C@@H]1CC[C@@H]2O [11β-Oxotestosterone] | 1.80
